Experimental data taken from patent US20160002204A1 (Board of Regents, The University of Texas System, priority 2014, published 2016).

Columns and labels:
[1] = molecular target: T1, GLS1 (purified recombinant human GAC) (Homo sapiens, UniProt O94925); assay: GLS1 enzymatic activity assay (dual-coupled, Amplex UltraRed/resorufin); format: biochemical
T1 sequence (O94925 55-598 isoform O94925-3 limits assumed): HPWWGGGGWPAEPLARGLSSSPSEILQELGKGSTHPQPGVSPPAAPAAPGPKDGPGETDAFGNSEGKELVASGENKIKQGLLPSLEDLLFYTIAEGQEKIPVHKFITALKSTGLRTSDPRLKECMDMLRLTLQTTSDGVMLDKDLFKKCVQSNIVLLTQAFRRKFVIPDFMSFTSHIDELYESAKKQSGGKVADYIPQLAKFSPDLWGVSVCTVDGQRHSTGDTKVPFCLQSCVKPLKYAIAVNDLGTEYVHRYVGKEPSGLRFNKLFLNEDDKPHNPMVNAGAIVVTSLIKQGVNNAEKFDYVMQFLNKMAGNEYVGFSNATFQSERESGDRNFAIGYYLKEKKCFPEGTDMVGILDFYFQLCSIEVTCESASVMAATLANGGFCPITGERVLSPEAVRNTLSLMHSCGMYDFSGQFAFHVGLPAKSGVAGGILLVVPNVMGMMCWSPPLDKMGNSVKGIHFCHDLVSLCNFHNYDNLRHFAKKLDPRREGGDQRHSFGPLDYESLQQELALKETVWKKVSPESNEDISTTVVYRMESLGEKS
In short: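 Recombinant human GAC (2 nM) preincubated with 50 mM potassium phosphate, then inhibitor (10 min each, RT); 1 mM glutamine, pH 7.4 Hepes buffer, 1% DMSO. Glutamate coupled via glutamate oxidase/HRP to resorufin (Ex 530/Em 590), kinetic or 20-min endpoint; IC50 by four-parameter logistic fit.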

A549 cells = assay: A549 proliferation (viability) assay, Cell Titer Fluor, 72 hours; format: cell-based; conditions: Homo sapiens
Experimental: A549 cells were routinely maintained in RPMI 1640 media (Gibco catalog number 11875-093) supplemented with 10% dialyzed fetal bovine serum using a humidified incubator (37° C., 5% CO2 and ambient O2). In preparation for the viability assay, cells were inoculated into 384-well black CulturPlates (Perkin Elmer) at a density of 1000 cells/well in a volume of 40 uL. Following a 24-hour incubation at 37° C., 5% CO2 and ambient O2, cells were treated with compound (10 uL) in a final DMSO concentration of 0.5% (v/v). The microplates were then incubated for 72 hours (37° C., 5% CO2 and ambient O2). Cell Titer Fluor (Promega) was subsequently added (10 uL of 6× reagent) and mixed for 15 minutes at room temperature. The plates were then incubated for 30 minutes (37° C., 5% CO2 and ambient O2) and fluorescence was subsequently read on the Perkin Elmer Envision plate reader. EC50 values were calculated using a four-parameter logistic curve fit.

SMILES	IC50 [1]	EC50 (A549 cells)
CC(=O)Nc1ccn(CCCCn2cc(C(=O)NCc3cccc(OC(F)(F)F)c3)nn2)c(=O)c1 [Example 50, 1-[4-(4-acetamido-2-oxo-1,2-dihydropyridin-1-yl)butyl]-N-{[3-(trifluoromethoxy)phenyl]methyl}-1H-1,2,3-triazole-4-carboxamide]	500 to 5000 nM	> 5000 nM
O=C(Cc1cccc(OC(F)(F)F)c1)Nc1ccn(CCCCn2cc(C(=O)NCc3ccccc3)nn2)c(=O)c1 [Example 51, N-benzyl-1-[4-(2-oxo-4-{2-[3-(trifluoromethoxy)phenyl]acetamido}-1,2-dihydropyridin-1-yl)butyl]-1H-1,2,3-triazole-4-carboxamide]	< 100 nM	500 to 5000 nM
O=C(Cc1cccc(OC(F)(F)F)c1)Nc1ccn(CCCCn2cc(C(=O)NCc3cccc(OC(F)(F)F)c3)nn2)c(=O)c1 [Example 52, 1-[4-(2-oxo-4-{2-[3-(trifluoromethoxy)phenyl]acetamido}-1,2-dihydropyridin-1-yl)butyl]-N-{[3-(trifluoromethoxy)phenyl]methyl}-1H-1,2,3-triazole-4-carboxamide]	< 100 nM	100 to 500 nM
CS(=O)(=O)c1cccc(CNC(=O)c2cn(CCCCn3ccc(NC(=O)Cc4cccc(OC(F)(F)F)c4)cc3=O)nn2)c1 [Example 53, N-[(3-methanesulfonylphenyl)methyl]-1-[4-(2-oxo-4-{2-[3-(trifluoromethoxy)phenyl]acetamido}-1,2-dihydropyridin-1-yl)butyl]-1H-1,2,3-triazole-4-carboxamide]	< 100 nM	500 to 5000 nM
CC(C)C(=O)Nc1ccn(CCCCn2cc(C(=O)NCc3cccc(OC(F)(F)F)c3)nn2)c(=O)c1 [Example 54, 1-{4-[4-(2-methylpropanamido)-2-oxo-1,2-dihydropyridin-1-yl]butyl}-N-{[3-(trifluoromethoxy)phenyl]methyl}-1H-1,2,3-triazole-4-carboxamide]	100 to 500 nM	500 to 5000 nM
O=C(Cc1ccccc1F)Nc1ccn(CCCCn2cc(C(=O)NCc3cccc(OC(F)(F)F)c3)nn2)c(=O)c1 [Example 55, 1-(4-{4-[2-(2-fluorophenyl)acetamido]-2-oxo-1,2-dihydropyridin-1-yl}butyl)-N-{[3-(trifluoromethoxy)phenyl]methyl}-1H-1,2,3-triazole-4-carboxamide]	< 100 nM	100 to 500 nM
O=C(CC1CCCOC1)Nc1ccn(CCCCn2cc(C(=O)NCc3cccc(OC(F)(F)F)c3)nn2)c(=O)c1 (stereo not drawn) [Example 56, 1-(4-{4-[2-(oxan-3-yl)acetamido]-2-oxo-1,2-dihydropyridin-1-yl}butyl)-N-{[3-(trifluoromethoxy)phenyl]methyl}-1H-1,2,3-triazole-4-carboxamide]	< 100 nM	500 to 5000 nM
O=C(Nc1ccn(CCCCn2cc(C(=O)NCc3ccccn3)nn2)c(=O)c1)OCc1ccccc1 [Example 57, benzyl N-[2-oxo-1-(4-{4-[(pyridin-2-ylmethyl)carbamoyl]-1H-1,2,3-triazol-1-yl}butyl)-1,2-dihydropyridin-4-yl]carbamate]	100 to 500 nM	500 to 5000 nM
CNC(=O)c1ccn(CCCCn2cc(C(=O)NCc3cccc(OC(F)(F)F)c3)nn2)c(=O)c1 [Example 58, N-methyl-2-oxo-1-{4-[4-({[3-(trifluoromethoxy)phenyl]methyl}carbamoyl)-1H-1,2,3-triazol-1-yl]butyl}-1,2-dihydropyridine-4-carboxamide]	500 to 5000 nM	> 5000 nM
O=C(NCc1cccc(OC(F)(F)F)c1)c1ccn(CCCCn2cc(C(=O)NCc3cccc(OC(F)(F)F)c3)nn2)c(=O)c1 [Example 59, 2-oxo-N-{[3-(trifluoromethoxy)phenyl]methyl}-1-{4-[4-({[3-(trifluoro-methoxy)phenyl]methyl}carbamoyl)-1H-1,2,3-triazol-1-yl]butyl}-1,2-dihydropyridine-4-carboxamide]	< 100 nM	100 to 500 nM
O=C(NCc1cccnc1)c1ccn(CCCCn2cc(C(=O)NCc3cccc(OC(F)(F)F)c3)nn2)c(=O)c1 [Example 60, 2-oxo-N-(pyridin-3-ylmethyl)-1-{4-[4-({[3-(trifluoro-methoxy)phenyl]methyl}carbamoyl)-1H-1,2,3-triazol-1-yl]butyl}-1,2-dihydropyridine-4-carboxamide]	100 to 500 nM	> 5000 nM
COc1ccc(CNC(=O)c2ccn(CCCCn3cc(C(=O)NCc4cccc(OC(F)(F)F)c4)nn3)c(=O)c2)c(OC)c1 [Example 61, N-[(2,4-dimethoxyphenyl)methyl]-2-oxo-1-{4-[4-({[3-(trifluoro-methoxy)phenyl]methyl}carbamoyl)-1H-1,2,3-triazol-1-yl]butyl}-1,2-dihydropyridine-4-carboxamide]	100 to 500 nM	500 to 5000 nM
CC(C)CNC(=O)c1ccn(CCCCn2cc(C(=O)NCc3cccc(OC(F)(F)F)c3)nn2)c(=O)c1 [Example 62, N-(2-methylpropyl)-2-oxo-1-{4-[4-({[3-(trifluoromethoxy)phenyl]methyl}carbamoyl)-1H-1,2,3-triazol-1-yl]butyl}-1,2-dihydropyridine-4-carboxamide]	100 to 500 nM	500 to 5000 nM
O=C(NCC1CCCCC1)c1ccn(CCCCn2cc(C(=O)NCc3cccc(OC(F)(F)F)c3)nn2)c(=O)c1 [Example 63, N-(cyclohexylmethyl)-2-oxo-1-{4-[4-({[3-(trifluoro-methoxy)phenyl]methyl}carbamoyl)-1H-1,2,3-triazol-1-yl]butyl}-1,2-dihydropyridine-4-carboxamide]	< 100 nM	100 to 500 nM
O=C(Nc1ccn(CCCCn2cc(C(=O)NCc3cccc(OC(F)(F)F)c3)nn2)c(=O)c1)OCc1cccc(OC(F)(F)F)c1 [Example 64, [3-(trifluoromethoxy)phenyl]methyl N-(2-oxo-1-{4-[4-({[3-(trifluoro-methoxy)phenyl]methyl}carbamoyl)-1H-1,2,3-triazol-1-yl]butyl}-1,2-dihydropyridin-4-yl)carbamate]	< 100 nM	100 to 500 nM
COc1cccc(CNC(=O)c2cn(CCCCn3ccc(NC(=O)Cc4cccc(OC(F)(F)F)c4)cc3=O)nn2)c1 [Example 65, N-[(3-methoxyphenyl)methyl]-1-[4-(2-oxo-4-{2-[3-(trifluoromethoxy)phenyl]acetamido}-1,2-dihydropyridin-1-yl)butyl]-1H-1,2,3-triazole-4-carboxamide]	< 100 nM	500 to 5000 nM
O=C(Cc1cccc(OC(F)(F)F)c1)Nc1ccn(CCCCn2cc(C(=O)NCc3cccc(F)c3)nn2)c(=O)c1 [Example 66, N-[(3-fluorophenyl)methyl]-1-[4-(2-oxo-4-{2-[3-(trifluoromethoxy)phenyl]acetamido}-1,2-dihydropyridin-1-yl)butyl]-1H-1,2,3-triazole-4-carboxamide]	< 100 nM	500 to 5000 nM
COc1ccc(CNC(=O)c2cn(CCCCn3ccc(NC(=O)Cc4cccc(OC(F)(F)F)c4)cc3=O)nn2)cc1 [Example 67, N-[(4-methoxyphenyl)methyl]-1-[4-(2-oxo-4-{2-[3-(trifluoromethoxy)phenyl]acetamido}-1,2-dihydropyridin-1-yl)butyl]-1H-1,2,3-triazole-4-carboxamide]	< 100 nM	500 to 5000 nM
CS(=O)(=O)c1ccc(CNC(=O)c2cn(CCCCn3ccc(NC(=O)Cc4cccc(OC(F)(F)F)c4)cc3=O)nn2)cc1 [Example 68, N-[(4-methanesulfonylphenyl)methyl]-1-[4-(2-oxo-4-{2-[3-(trifluoromethoxy)phenyl]acetamido}-1,2-dihydropyridin-1-yl)butyl]-1H-1,2,3-triazole-4-carboxamide]	< 100 nM	> 5000 nM
O=C(Cc1cccc(OC(F)(F)F)c1)Nc1ccn(CCCCn2cc(C(=O)NCc3cccnc3)nn2)c(=O)c1 [Example 69, 1-[4-(2-oxo-4-{2-[3-(trifluoromethoxy)phenyl]acetamido}-1,2-dihydropyridin-1-yl)butyl]-N-(pyridin-3-ylmethyl)-1H-1,2,3-triazole-4-carboxamide]	< 100 nM	500 to 5000 nM
Cc1ccc(CNC(=O)c2cn(CCCCn3ccc(NC(=O)Cc4cccc(OC(F)(F)F)c4)cc3=O)nn2)cn1 [Example 70, N-[(6-methylpyridin-3-yl)methyl]-1-[4-(2-oxo-4-{2-[3-(trifluoromethoxy)phenyl]acetamido}-1,2-dihydropyridin-1-yl)butyl]-1H-1,2,3-triazole-4-carboxamide]	< 100 nM	500 to 5000 nM
